Data as given in patent US20260083126A1, “ANTIMICROBIAL COMPOSITIONS” (AHV International B.V., priority 2022, published 2026).
Entries after “also recorded” stand apart in the source; their conditions may differ.

Tested on: Staphylococcus aureus LUH14616
Assay: Resistance development on repeated exposure (19 passages)
Format: cell-based
Description: Experimental design. Potential resistance to AM-8 was assessed as described by Habets and Brockhurst (2012) (Therapeutic antimicrobial peptides may compromise natural immunity. Biol Lett 8:416-418). Briefly, log phase bacteria (S. aureus LUH 14616) were diluted in RPMI-mod to a concentration of 2×10^6 CFU/ml. Next, 50 μl of this bacterial suspension were mixed with 50 μl of a range of dilutions of AM-8 or—as comparator-rifampicin in v-bottom 96-wells plates. Thereafter, the plates were covered with a plastic seal and incubated for 24 hrs at 37° C. in a shaking incubator (200 rpm). The plates were then centrifuged for 5 min at 2,000 rpm and the growth inhibition was determined. To start the resistance development testing, 100 μl of a mid-log bacterial suspension containing 2×10^6 CFU/ml were mixed with 150 μl of RPMI-mod and 5 μl of this diluted bacterial suspension were applied to v-bottom wells containing a dilution range of AM-8 or antibiotics (various concentrations below and above MIC) in RPMI-mod (RPMI 1640 modified with 20 mM Hepes and L-glutamine and without sodium bicarbonate (Sigma-Aldrich); further referred to as RPMI-mod). After 24 hrs at 37° C. in a shaking incubator (200 rpm) the growth inhibition was determined. 100 μl of the bacterial suspension from the 0.5×MIC wells were mixed with 150 μl of RPMI-mod and 5 μl of the diluted bacterial suspension were used to inoculate a new 96-wells plate containing a dilution series of AM-8 or rifampicin, and these mixtures were then incubated as described above. If resistance developed, the concentration range of AM-8 and/or antibiotic was adjusted accordingly. This was repeated 19 times. Results are expressed as the fold-increase in MIC compared to the MIC at the start of the experiment.

`CC(C)SS(=O)(=O)C(C)C` [Di-isopropyl thiosulfonate] was tested, and the resistance development (19 passages, listed as AM-8) was “no resistance development; also recorded: little/no resistance” and the “fold-increase in MIC compared to the MIC at the start” value (within 19 passages, two batches, seen occasionally) was ≤ 2 fold.
